Reference: PubChem BioAssay (NCI)
Several values for one entry are separate records, joined by “and”; a condition that tells them apart may be missing. Identical values can stand only once.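 Test compounds were applied to cells in 96-well plates for 48 hours at 5 doses. GI50 is the concentration that inhibits growth by half. At the TGI there is no net growth.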

Legend:
Assay in all cases: NCI tumour cell line growth inhibition, 48 h
[1] = tested on: MOLT-4 leukemia
[2] = tested on: 786-0 renal
[3] = tested on: T-47D breast
[4] = tested on: RXF 393 renal
[5] = tested on: IGROV1 ovarian
[6] = tested on: CAKI-1 renal
[7] = tested on: ACHN renal
[8] = tested on: A549 NSCLC
[9] = tested on: SF-268 CNS
[10] = tested on: MCF7 breast

SMILES	GI50 [1]	TGI [1]	GI50 [2]	TGI [2]	GI50 [3]	TGI [3]	GI50 [4]	TGI [4]	GI50 [5]	TGI [5]	GI50 [6]	TGI [6]	GI50 [7]	TGI [7]	GI50 [8]	TGI [8]	GI50 [9]	TGI [9]	GI50 [10]	TGI [10]
CC1=C2[C@@H](CC1)[C@]1(C)O[C@@](C(C)C)(C[C@H]1OC(=O)CO)[C@H]2OC(=O)C1CC1c1ccccc1 (some centres undefined)	9.73 µM	28.8 µM	15.1 µM	32.2 µM	4.16 µM	21.6 µM	0.405 µM	17.4 µM	19.1 µM	46.7 µM	11.4 µM	24 µM	3.05 µM	20.9 µM	11.9 µM	25.9 µM	13 µM	27.9 µM	8.98 µM	27.8 µM
COc1cc(Nc2ncc(-c3ccccc3)o2)cc(OC)c1	> 18.7 µM	> 25 µM	> 25 µM	> 25 µM	> 25 µM	> 25 µM	8.4 µM	> 25 µM	> 25 µM	> 25 µM	> 19.2 µM	> 25 µM	17.4 µM	> 25 µM	> 25 µM	> 25 µM	> 25 µM	> 25 µM	> 25 µM	> 25 µM
Cc1csc2[n+]1-c1ccccc1N(C(=O)Nc1ccccc1)C(C)C2 (centres undefined)	88.5 µM	> 100 µM	17.7 µM	35.8 µM	> 100 µM	> 100 µM	50.8 µM	> 100 µM	80.7 µM	> 100 µM	84.9 µM	> 100 µM	55.5 µM	> 100 µM	36.6 µM	> 100 µM	> 100 µM	> 100 µM	48.7 µM	> 100 µM
COc1ccc2c(c1)nc(C(=O)c1ccco1)c(C(F)(F)F)[n+]2[O-]	> 100 µM	> 100 µM	29.2 µM	> 100 µM	77.4 µM	> 100 µM	47.5 µM	> 100 µM	> 100 µM	> 100 µM	> 100 µM	> 100 µM	> 100 µM	> 100 µM	> 100 µM	> 100 µM	83.8 µM	> 100 µM	> 100 µM	> 100 µM
COCc1c(-c2cc3cc(C)cc(OC)c3s2)c2c(N)ncnn2c1CN1CCNC(=O)C1	3.22 µM	48.5 µM	5.86 µM	82.9 µM	4.84 µM	47.4 µM			3.39 µM	> 100 µM	4.88 µM	44.2 µM	4.31 µM	55.5 µM	3.2 µM	29.9 µM	4.3 µM	> 100 µM	3.82 µM	33.6 µM
COc1ccc(C/C(=C(\C)c2ccc(OCCN3CCCC3)cc2)c2ccc(OCCN3CCCC3)cc2)cc1	1.94 µM	4.51 µM	1.63 µM	3.24 µM	1.69 µM	3.37 µM	1.48 µM	2.88 µM	1.87 µM	3.97 µM	1.66 µM	3.09 µM	1.74 µM	3.12 µM	1.82 µM	3.84 µM	1.97 µM	4.19 µM	1.6 µM	3.1 µM
CCCCCCCCCCCCCCCCCCn1cc[n+](C)c1	0.189 µM and 0.65 µM		0.952 µM	3.32 µM	0.403 µM and 0.433 µM	2.96 µM and 3.31 µM	0.451 µM	1.54 µM	0.253 µM and 0.516 µM				0.54 µM and 0.69 µM	2.04 µM and 2.03 µM					0.513 µM and 1 µM	1.79 µM and 2.35 µM
COc1ccc(Cc2coc3ccccc3c2=O)cc1OC		> 100 µM		> 100 µM		> 100 µM		> 100 µM		> 100 µM		49.5 µM		> 100 µM		> 100 µM		> 100 µM		> 100 µM
COc1ccc2c(c1OC)CO[C@@H]2[C@H]1c2c(cc3c(c2OC)OCO3)CCN1S(=O)(=O)c1cn(C)cn1	3.84 µM	> 100 µM	0.968 µM	> 100 µM	16.9 µM	> 100 µM			1.45 µM	> 100 µM	1.01 µM	> 100 µM	1.73 µM	> 100 µM	1.99 µM	> 100 µM	5.64 µM	> 100 µM	0.407 µM	> 100 µM
Cc1ccc(S(=O)(=O)SC(C)(C)C)cc1		41.5 µM		31.8 µM		> 100 µM				37.3 µM		41.4 µM		98.1 µM		> 100 µM		> 100 µM		42.1 µM
C=C/C=C/[C@@H](O)CC(=C)C[C@H]1OC2[C@H](C)[C@@H](OC(=O)C[C@H]3C[C@H](OC(C)=O)C[C@@]4(C[C@@](C)(O)C[C@H](CC(=C)[C@@H](C)[C@H](OC(C)=O)[C@H](C)C(=O)C[C@@H]5C[C@H](OC)CC6(C[C@@H](O)C[C@H](/C=C\CCC[C@H]7O[C@](O)(C=C[C@H]7C)[C@H]2O)O6)O5)O4)O3)[C@@H]1O			0.000572 µM and 0.0025 µM	> 25 µM		> 25 µM	0.0025 µM	0.0542 µM	0.00158 µM and < 0.0025 µM	< 0.0025 µM	0.00538 µM and 0.0025 µM		0.00472 µM and 0.00856 µM	> 25 µM			0.00406 µM and 0.0025 µM	0.0413 µM and 0.277 µM	< 0.0025 µM	< 0.0025 µM
COc1ccc2c(c1)c(-c1nc(-c3c[nH]c4ccncc34)cs1)cn2C			1.7 µM	3.24 µM			1.49 µM	2.88 µM	1.91 µM	3.54 µM	1.64 µM	3.03 µM	1.77 µM	3.17 µM	1.87 µM	3.46 µM	1.77 µM	3.37 µM	1.47 µM	3.09 µM
O=C(/C=C\c1ccc([N+](=O)[O-])cc1)c1ccccc(=O)c1O		> 21.8 µM		4.05 µM		23.8 µM				4.16 µM		4.61 µM		2.85 µM		11.9 µM		37.3 µM		2.64 µM
Cc1ccc(/C=N/Nc2nc(Nc3ccccc3)nc(-n3nc(C)cc3C)n2)cc1	2.4 µM	8.53 µM	3.7 µM	36.9 µM	2.55 µM	7.41 µM			4.99 µM	44.8 µM	2.56 µM	9.45 µM	4.44 µM	56.6 µM	4.19 µM	35.7 µM	4.42 µM	> 100 µM	2.89 µM	10.6 µM
